In patent US20190249218A1, “Method, Medium and Kit for Detecting Multiple Aminoglycoside Resistance Including 16S rRNA Methylase Mediated Resistance in Gram-Negative Bacteria” (priority 2016, published 2019):
Converted amounts (≈) assume the structure as drawn. Where two headings read alike, the source gives them in different places.

Experiments:
Experiment in all cases: MIC by broth microdilution
[1] = test system: E. coli; format: cell-based, Escherichia coli
Description: (§1) MICs of amikacin and gentamicin were determined using the broth microdilution method in cation-adjusted Mueller-Hinton broth, as recommended by the Clinical Laboratory Standard Institute (CLSI) guidelines (8). Amikacin and gentamicin sulfate (Fluorochem, Dertbyshire, UK) were tested over a range of dilutions from 0.25 to 256 μg/ml. A final inoculum of 5.10^5 CFU/ml of each strain was distributed in the 96 wells tray (Sarstedt, Ntimbrecht, Germany). All experiments were repeated in triplicate and E. coli ATCC 25922 was used as quality control. According to the CLSI breakpoints (9), Enterobacteriaceae isolates with gentamicin MICs≤4 and amikacin MICs≤16 mg/L were categorized as susceptible, while those with gentamicin MICs≥16 and amikacin MICs≥64 mg/L were categorized as resistant.
(§2) MICs of amikacin and gentamicin were determined as described above in Example 1.

[2] = test system: K. pneumoniae; format: cell-based, Klebsiella pneumoniae; conditions: for MIC: Klebsiella pneumoniae, read-out: MIC
Description: as §1, §2

[3] = test system: E. cloacae; format: cell-based, Enterobacter cloacae; conditions: for MIC: Enterobacter cloacae, read-out: MIC
Description: as §1, §2

[4] = test system: P. stuartii; format: cell-based, Providencia stuartii; conditions: for MIC: Providencia stuartii, read-out: MIC
Description: as §1, §2

[5] = test system: P. rettgeri; format: cell-based, Providencia rettgeri; conditions: AAC(2′)
Description: as §1, §2

[6] = test system: S. marcescens; format: cell-based, Serratia marcescens; conditions: AAC(3)-I
Description: as §1, §2

[7] = test system: A. baumannii; format: cell-based, Acinetobacter baumannii; conditions: Acinetobacter baumannii
Description: as §1, §2

[8] = isolate 13000, K. pneumoniae, APH(3′)-I + AAC(3)-V
[9] = isolate 22233, K. pneumoniae, AAC(3)-V
[10] = isolate N34, K. pneumoniae, rmtC
[11] = isolate R108, K. pneumoniae, armA
[12] = isolate R347, K. pneumoniae, AG susceptible
[13] = isolate R500, K. pneumoniae, armA
[14] = isolate R502, K. pneumoniae, rmtF
[15] = isolate R2160, K. pneumoniae, rmtG
[16] = isolate R2257, K. pneumoniae, armA
[17] = isolate S155, K. pneumoniae, AG susceptible
[18] = isolate 1110, E. cloacae, ANT(2″)
[19] = isolate HM, E. cloacae, AG susceptible
[20] = isolate R713, E. cloacae, AG susceptible
[21] = isolate R1433, E. cloacae, AG susceptible
[22] = isolate R2258, E. cloacae, armA
[23] = isolate BM2667, P. stuartii, APH(3′)-VI + AAC(2′)
[24] = isolate R265, P. stuartii, rmtC

NCC[C@H](O)C(=O)N[C@@H]1C[C@H](N)[C@@H](O[C@H]2O[C@H](CN)[C@@H](O)[C@H](O)[C@H]2O)[C@H](O)[C@H]1O[C@H]1O[C@H](CO)[C@@H](O)[C@H](N)[C@H]1O [Amikacin]
Amikacin Phenotype ([1]; isolate pFCT4392, E. coli, AAC(3)-Ia): S (amikacin MICs≤16 mg/L were categorized as susceptible) | Amikacin Phenotype ([1]; isolate pWP701, E. coli, AAC(3)-IV): S (amikacin MICs≤16 mg/L were categorized as susceptible) | MIC ([2]; isolate 1800, K. pneumoniae, AAC(6′)-I + AAC(3)-I): 32 µg/mL | MIC [2, 8]: 0.5 µg/mL | MIC [2, 9]: 16 µg/mL (≈ 27.3 µM) | MIC [2, 10]: > 256 µg/mL | MIC [2, 11]: > 256 µg/mL | MIC [2, 12]: 4 µg/mL (≈ 6.83 µM) | MIC [2, 13]: > 256 µg/mL | MIC [2, 14]: > 256 µg/mL | MIC [2, 15]: > 256 µg/mL | MIC [2, 16]: > 256 µg/mL | MIC [2, 17]: 2 µg/mL (≈ 3.42 µM) | MIC ([2]; strain 1800, K. pneumoniae, AAC(6′)-I + AAC(3)-I): 32 µg/mL | MIC ([2]; strain 13000, K. pneumoniae, APH(3′)-I + AAC(3)-V): 0.5 µg/mL | MIC ([2]; strain 22233, K. pneumoniae, AAC(3)-V): 16 µg/mL (≈ 27.3 µM) | MIC ([2]; strain N34, K. pneumoniae, rmtC): > 512 µg/mL | MIC ([2]; strain R108, K. pneumoniae, armA): > 512 µg/mL | MIC ([2]; strain R347, K. pneumoniae, susceptible): 4 µg/mL (≈ 6.83 µM) | MIC ([2]; strain R500, K. pneumoniae, armA): > 512 µg/mL | MIC ([2]; strain R502, K. pneumoniae, rmtF): > 512 µg/mL | MIC ([2]; strain R2160, K. pneumoniae, rmtG): > 512 µg/mL | MIC ([2]; strain R2257, K. pneumoniae, armA): > 512 µg/mL | MIC ([2]; strain S155, K. pneumoniae, susceptible): 2 µg/mL (≈ 3.42 µM) | Amikacin Phenotype [2, 8]: S (amikacin MICs≤16 mg/L were categorized as susceptible) | Amikacin Phenotype [2, 9]: S (amikacin MICs≤16 mg/L were categorized as susceptible) | Amikacin Phenotype [2, 10]: R (amikacin MICs≥64 mg/L were categorized as resistant) | Amikacin Phenotype [2, 11]: R (amikacin MICs≥64 mg/L were categorized as resistant) | Amikacin Phenotype [2, 12]: S (amikacin MICs≤16 mg/L were categorized as susceptible) | Amikacin Phenotype [2, 13]: R (amikacin MICs≥64 mg/L were categorized as resistant) | Amikacin Phenotype [2, 14]: R (amikacin MICs≥64 mg/L were categorized as resistant) | Amikacin Phenotype [2, 15]: R (amikacin MICs≥64 mg/L were categorized as resistant) | Amikacin Phenotype [2, 16]: R (amikacin MICs≥64 mg/L were categorized as resistant) | Amikacin Phenotype [2, 17]: S (amikacin MICs≤16 mg/L were categorized as susceptible) | MIC [3, 18]: 1 µg/mL (≈ 1.71 µM) | MIC [3, 19]: 4 µg/mL (≈ 6.83 µM) | MIC [3, 20]: 4 µg/mL (≈ 6.83 µM) | MIC [3, 21]: 4 µg/mL (≈ 6.83 µM) | MIC [3, 22]: > 256 µg/mL | MIC ([3]; strain 1110, E. cloacae, ANT(2″)): 1 µg/mL (≈ 1.71 µM) | MIC ([3]; strain HM, E. cloacae, susceptible): 4 µg/mL (≈ 6.83 µM) | MIC ([3]; strain R713, E. cloacae, susceptible): 4 µg/mL (≈ 6.83 µM) | MIC ([3]; strain R1433, E. cloacae, susceptible): 4 µg/mL (≈ 6.83 µM) | MIC ([3]; strain R2258, E. cloacae, armA): > 512 µg/mL | Amikacin Phenotype [3, 18]: S (amikacin MICs≤16 mg/L were categorized as susceptible) | Amikacin Phenotype [3, 19]: S (amikacin MICs≤16 mg/L were categorized as susceptible) | Amikacin Phenotype [3, 20]: S (amikacin MICs≤16 mg/L were categorized as susceptible) | Amikacin Phenotype [3, 21]: S (amikacin MICs≤16 mg/L were categorized as susceptible) | Amikacin Phenotype [3, 22]: R (amikacin MICs≥64 mg/L were categorized as resistant) | MIC [4, 23]: 64 µg/mL | MIC ([4]; isolate R38, P. stuartii, rmtC): > 256 µg/mL | MIC [4, 24]: > 256 µg/mL | MIC ([4]; strain BM2667, P. stuartii, APH(3′)-VI + AAC(2′)): 64 µg/mL | MIC ([4]; strain R38, P. stuartii, rmtC): > 512 µg/mL | MIC ([4]; strain R265, P. stuartii, rmtC): > 512 µg/mL | Amikacin Phenotype [4, 23]: R (amikacin MICs≥64 mg/L were categorized as resistant) | Amikacin Phenotype ([4]; isolate R38, P. stuartii, rmtC): R (amikacin MICs≥64 mg/L were categorized as resistant) | Amikacin Phenotype [4, 24]: R (amikacin MICs≥64 mg/L were categorized as resistant) | MIC ([5]; Providencia rettgeri, isolate 531, P. rettgeri, read-out: MIC): 16 µg/mL (≈ 27.3 µM) | Amikacin Phenotype ([5]; isolate 531, P. rettgeri): S (amikacin MICs≤16 mg/L were categorized as susceptible) | MIC ([5]; strain 531, P. rettgeri): 16 µg/mL (≈ 27.3 µM) | MIC ([6]; Serratia marcescens, isolate 4290, S. marcescens, read-out: MIC): 4 µg/mL (≈ 6.83 µM) | Amikacin Phenotype ([6]; isolate 4290, S. marcescens): S (amikacin MICs≤16 mg/L were categorized as susceptible) | MIC ([6]; strain 4290, S. marcescens): 4 µg/mL (≈ 6.83 µM) | MIC [7]: 128 µg/mL (≈ 219 µM) | MIC ([7]; strain 4996, A. baumannii, AAC(6′)-I, read-out: MIC): 64 µg/mL (≈ 109 µM) | MIC ([7]; strain BM2580, A. baumannii, APH(3′)-VI, read-out: MIC): 64 µg/mL (≈ 109 µM) | MIC ([7]; strain R264, A. baumannii, armA, read-out: MIC): > 512 µg/mL | MIC ([7]; strain R1395, A. baumannii, susceptible, read-out: MIC): 2 µg/mL (≈ 3.42 µM)
